Measured values as given in publication PMC11883664, “Expansion of the diversity of dispersin scaffolds” (Acta Crystallographica Section D: Structural Biology, 2025).

What was measured:
DispTs2 [1] = biological target: T1, DispTs2 (Terribacillus saccharophilus, UniProt A0A075LPR4); experiment: ITC and crystal structure ([…] Å); type: binding
T1 construct: gene GZ22_15930; mature polypeptide with polyhistidine tag

DispLp = biological target: T2, DispLp (Lactiplantibacillus paraplantarum, UniProt A0AAD0TQY4); experiment: crystal structure ([…] Å) and ITC; type: binding
T2 construct: gene LP667_05900; mature polypeptide with polyhistidine tag
T2 sequence (A0AAD0TQY4 31-361): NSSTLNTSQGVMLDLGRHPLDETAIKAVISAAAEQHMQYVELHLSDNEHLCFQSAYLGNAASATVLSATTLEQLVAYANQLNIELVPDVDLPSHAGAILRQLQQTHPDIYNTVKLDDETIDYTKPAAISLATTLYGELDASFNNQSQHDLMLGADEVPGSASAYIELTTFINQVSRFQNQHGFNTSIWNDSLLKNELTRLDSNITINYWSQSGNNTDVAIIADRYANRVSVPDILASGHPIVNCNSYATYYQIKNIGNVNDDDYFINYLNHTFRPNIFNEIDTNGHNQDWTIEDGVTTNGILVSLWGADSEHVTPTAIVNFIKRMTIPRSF

DispSf = biological target: T3, DispSf; experiment: ITC; type: binding, Mammaliicoccus fleurettii
T3 construct: mature polypeptide with polyhistidine tag

DispTs2 [2] = biological target: T1, DispTs2; experiment: crystal structure by soaking ([…] Å); only the NAG-thiazoline unit (NGT) modelled; type: binding
purified protein = substrate: CC(=O)N[C@H]1[C@H](Oc2ccc3c(C)cc(=O)oc3c2)O[C@H](CO)[C@@H](O)[C@@H]1O; experiment: purified protein

Molecule CC(=O)N[C@H]1CN2CC[C@H](O)[C@@H]2[C@@H](O)[C@@H]1O [6-Ac-Cas, 6-acetamido-6-deoxy-castanospermine] has a Kd (DispTs2 [1]) of 6 µM, a Kd (DispLp) of 1120 µM and a Kd (DispSf) of 15 µM.

With CC(=O)N[C@H]1[C@H](OC[C@H]2O[C@@H]3SC(C)=N[C@@H]3[C@@H](O)[C@@H]2O)O[C@H](CO)[C@@H](O)[C@@H]1O [di-NAG-thiazoline, GlcNAc-β(1,6)-GlcNAc-thiazoline] the “crystal structure by soaking (2.17 Å); only the NAG-thiazoline unit (NGT) modell” value (DispTs2 [2]) was “The electron density for the first unit of di-NAG-thiazoline (corresponding to GlcNAc-thiazoline, NGT in the PDB dictionary) was well defined”.

B1: DispTs2 (Terribacillus saccharophilus) (protein)
chain: QDQEKGITIDISRKYYSIKTLKAIVDEISANGGDYLQLHFSDNESYAIASEFLGQNSENPNSAYLTKKELLSLIAYSNDRNIMVIPDIDLPAHSKGWLNIMKEKDSGLYTDIVTDYSEDTLDYHNNAVALYTANQLLDEVLDLFYQPKFAGKQRIVLGGDEVPGSGAHQTDFIRFMNQIAKTAKASNYEPQMWNDSITPEGIQNLDRSFSILYWKQSTLSNGAQSLDVQDFEENGLSVYNYNAYSLYFLPSTRFTQEDITEQIDYMKWAYAYNKFFYISDYYKQVDTPNVKGSSLVFWGEHANDLSQERLLKQEKPLIQNFLGL
B1 was tested, and the Km (purified protein) was 2500 ± 100 µM.
